Assay results as given in patent publication US4602025A, “Aromatase inhibitors” (Eli Lilly and Company, priority 1984, dated 1986).

Tests used:
aromatase = target: T1, aromatase (Rattus norvegicus, UniProt P22443); experiment: biochemical; conditions: rat ovarian microsomes; substrate (androstenedione) concentration 0.1 μM; inhibitors tested between 0.005 and 10 μM
T1 sequence (P22443 1-508): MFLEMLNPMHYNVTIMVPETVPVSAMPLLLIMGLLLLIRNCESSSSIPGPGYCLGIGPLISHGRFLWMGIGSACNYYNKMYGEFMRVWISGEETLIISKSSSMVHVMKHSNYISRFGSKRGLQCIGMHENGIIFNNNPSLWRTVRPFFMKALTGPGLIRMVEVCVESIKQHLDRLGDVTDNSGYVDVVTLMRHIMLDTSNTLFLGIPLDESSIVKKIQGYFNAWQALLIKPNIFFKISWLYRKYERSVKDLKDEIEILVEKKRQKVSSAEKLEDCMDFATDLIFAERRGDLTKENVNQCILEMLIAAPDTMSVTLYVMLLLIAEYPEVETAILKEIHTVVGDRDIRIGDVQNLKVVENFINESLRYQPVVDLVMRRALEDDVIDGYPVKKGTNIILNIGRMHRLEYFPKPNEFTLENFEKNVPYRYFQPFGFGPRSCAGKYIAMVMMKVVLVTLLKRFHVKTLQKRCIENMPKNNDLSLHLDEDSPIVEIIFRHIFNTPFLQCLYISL
Procedure: In this test system, ovarian microsomes are obtained from rats treated with pregnant mares serum gonadotropin. Test compounds are added to reaction vials containing 0.1 μM 4-androstene-3,17-dione, 100,000 dpm 1,2[^3 H]-androstenedione, the microsomes and a NADPH generating system.

breast cancer = conditions: known aromatase inhibitors; Cancer Research, Vol. 42, Suppl. 8:3261s (1982); cited from earlier work

Compound: c1ccc(C(c2ccccc2)(c2ccns2)n2cncn2)cc1 [Example 2, 5-(Diphenyl-1H-1,2,4-triazol-1-ylmethyl)-isothiazole]
- EC50 (aromatase): 0.257 µM

Compound: CCC1(c2ccc(N)cc2)CCC(=O)NC1=O (stereo not shown) [aminoglutethimide]
- effect in treatment of breast cancer (breast cancer): beneficial effect

Compound: C[C@]12C=CC(=O)C=C1CC[C@@H]1[C@@H]2CC[C@]2(C)OC(=O)CC[C@@H]12 [testolactone]
- effect in treatment of breast cancer (breast cancer): beneficial effect

Compound: Clc1ccc(C(c2ccc(Cl)cc2)(c2ccns2)n2cncn2)cc1 [Example 7, 1-[Bis(4-chlorophenyl)-5-isothiazolemethyl]-1H-1,2,4-triazole]
- EC50 (aromatase): 0.051 µM
